Results taken from patent US8765798B2, “Peptide derivatives with therapeutic activity” (Flamma S.p.A., priority 2006, dated 2014).

Assay: carbonyl-quenching activity on HNE in vitro (residual HNE by reversed-phase chromatography)
Details: for reacted HNE (%) t = 1 h mean / reacted HNE (%) t = 3 h mean / reacted HNE (%) t = 2 h mean: HNE 50 μM, compound 1 mM, phosphate buffer 10 mM pH 7.4, 37° C.; for reacted HNE (%) t = 1 h mean: one hour incubation; for reacted HNE (%) t = 3 h mean: three hours incubation; for reacted HNE (%) t = 2 h mean: two hours incubation
Procedure: The pharmacological activity of the compounds of the invention was determined in vitro evaluating their carbonyl-quenching activity on 4-hydroxy nonenal (HNE), which is known to be involved in a number of pathologies.
The carbonyl-quenching activity of a selected series of compounds of the present invention was assessed in vitro, incubating HNE (50 μM) with the tested compounds (1 mM), in phosphate buffer (10 mM) pH 7.4 at 37° C. The activity was evaluated after one, two and three hours incubation, determining the residual content of HNE by reversed-phase chromatography as described by Aldini G et al. [Biochem Biophys Res Commun. 2002 Nov. 15; 298(5):699-706]. The carbonyl-quenching activity is expressed as the reacted HNE percent compared with the HNE content in the absence of the test compounds.

Row | SMILES | reacted HNE (%) t = 1 h mean | reacted HNE (%) t = 3 h mean | reacted HNE (%) t = 2 h mean | carbonyl-quenching activity compared with carnosine (after one hour incubation)
1 | C[C@H](N)CC(=O)N[C@H](Cc1c[nH]cn1)C(=O)O [FL-926-A-002, (3S)-3-aminobutanoyl-D-histidine] | 6.568% | 21.58% | 14.26% | 
2 | N[C@@H](CC(=O)N[C@H](Cc1c[nH]cn1)C(=O)O)c1ccccc1 [FL-926-A-006, (3S)-3-amino-3-phenylpropanoyl-D-histidine] | 29.3% | 65.8531% | 50.7209% | almost twice as high
3 | NCCC(=O)N[C@@H](Cc1cnc[nH]1)C(=O)O [Carnosine, reference compound] | 17.39% | 43.59% | 31.65% | 
4 | N[C@@H](Cc1ccccc1)[C@@H](O)C(=O)N[C@H](Cc1c[nH]cn1)C(=O)O [FL-926-A-005, (2R,3S)-3-amino-2-hydroxy-4-phenylbutanoyl-D-histidine] | 15.2% | 38.56% | 27.75% | 
